# From paper PMC5218480 (PLoS ONE, 2017)
# Tested on: MV-4-11 cells
# Experiment: Gene expression microarray analysis (Affymetrix PrimeView) and GSEA
# Assay type: cell-based, human
# Set-up: RFU PODN (11730768_x_at) / Fold change /veh PODN (11730768_x_at) / RFU LINC00158 (11744669_a_at) / Fold change /veh LINC00158 (11744669_a_at) / RFU DUSP10 (11751237_a_at) / Fold change /veh DUSP10 (11751237_a_at) / RFU ID3 (11757404_x_at) / Fold change /veh ID3 (11757404_x_at) / RFU PLEKHG5 (11737974_s_at) / Fold change /veh PLEKHG5 (11737974_s_at) / RFU LRRC4B (11730491_at) / Fold change /veh LRRC4B (11730491_at) / RFU GIMAP4 (11747438_a_at) / Fold change /veh GIMAP4 (11747438_a_at) / RFU KRT8 (11758183_x_at) / Fold change /veh KRT8 (11758183_x_at) / RFU CNN1 (11734310_a_at) / Fold change /veh CNN1 (11734310_a_at) / RFU VPS37D (11726825_at) / Fold change /veh VPS37D (11726825_at) / RFU C10orf10 (11716522_x_at) / Fold change /veh C10orf10 (11716522_x_at) / RFU KIR2DL2 /// KIR2DL4 /// KIR2DL5A /// KIR2DL5B /// KIR2DS1 /// KIR2DS2 /// KIR2DS3 /// KIR2DS4 /// KIR3DL3 /// KIR3DL3 /// KIR3DS1 (11738374_at) / Fold change /veh KIR2DL2 /// KIR2DL4 /// KIR2DL5A /// KIR2DL5B /// KIR2DS1 /// KIR2DS2 /// KIR2DS3 /// KIR2DS4 /// KIR3DL3 /// KIR3DL3 /// KIR3DS1 (11738374_at) / RFU C1QL1 (11718748_at) / Fold change /veh C1QL1 (11718748_at) / RFU TMPRSS4 (11747572_a_at) / Fold change /veh TMPRSS4 (11747572_a_at) / RFU HAMP (11756126_x_at) / Fold change /veh HAMP (11756126_x_at) / RFU RNFT2 (11725882_a_at) / Fold change /veh RNFT2 (11725882_a_at) / RFU NR4A2 (11747474_a_at) / Fold change /veh NR4A2 (11747474_a_at) / RFU ABCC12 (11746883_a_at) / Fold change /veh ABCC12 (11746883_a_at) / RFU TMEM136 (11760407_x_at) / Fold change /veh TMEM136 (11760407_x_at) / RFU CLDN22 /// WWC2 (11732394_at) / Fold change /veh CLDN22 /// WWC2 (11732394_at) / RFU HLA-DPB1 (11760878_x_at) / Fold change /veh HLA-DPB1 (11760878_x_at) / RFU SPINT1 (11716480_a_at) / Fold change /veh SPINT1 (11716480_a_at) / RFU GAP43 (11754022_s_at) / Fold change /veh GAP43 (11754022_s_at) / RFU A4GNT (11735810_at) / Fold change /veh A4GNT (11735810_at) / RFU PRB3 (11715151_x_at) / Fold change /veh PRB3 (11715151_x_at) / RFU TUBB4B (11761932_at) / Fold change /veh TUBB4B (11761932_at) / RFU CAPN14 (11732068_a_at) / Fold change /veh CAPN14 (11732068_a_at) / RFU TMCC2 (11721928_a_at) / Fold change /veh TMCC2 (11721928_a_at) / RFU IRGQ (11745062_a_at) / Fold change /veh IRGQ (11745062_a_at) / RFU FAM174B (11720279_a_at) / Fold change /veh FAM174B (11720279_a_at) / RFU TMPRSS4 (11748680_a_at) / Fold change /veh TMPRSS4 (11748680_a_at) / RFU FAM212B (11763350_a_at) / Fold change /veh FAM212B (11763350_a_at) / RFU PLEKHG5 (11743358_a_at) / Fold change /veh PLEKHG5 (11743358_a_at) / RFU ZSCAN30 (11745921_a_at) / Fold change /veh ZSCAN30 (11745921_a_at) / RFU CMKLR1 (11741424_a_at) / Fold change /veh CMKLR1 (11741424_a_at) / RFU LOC101060620 /// MAPK8IP1 (11723275_at) / Fold change /veh LOC101060620 /// MAPK8IP1 (11723275_at) / RFU SPTSSB (11747773_x_at) / Fold change /veh SPTSSB (11747773_x_at) / RFU PRSS12 (11739890_at) / Fold change /veh PRSS12 (11739890_at) / RFU BIN1 (11741810_x_at) / Fold change /veh BIN1 (11741810_x_at) / RFU WNT11 (11732464_a_at) / Fold change /veh WNT11 (11732464_a_at) / RFU C10orf10 (11716521_a_at) / Fold change /veh C10orf10 (11716521_a_at) / RFU C5orf56 (11738089_at) / Fold change /veh C5orf56 (11738089_at) / RFU CYB561 (11721691_x_at) / Fold change /veh CYB561 (11721691_x_at) / RFU ANKRD19P (11752326_a_at) / Fold change /veh ANKRD19P (11752326_a_at) / RFU OR2T12 /// OR2T33 /// OR2T8 (11738714_s_at) / Fold change /veh OR2T12 /// OR2T33 /// OR2T8 (11738714_s_at) / RFU VCAN (11748164_a_at) / Fold change /veh VCAN (11748164_a_at) / RFU JSRP1 (11732532_at) / Fold change /veh JSRP1 (11732532_at) / RFU KRTAP10-11 (11738290_x_at) / Fold change /veh KRTAP10-11 (11738290_x_at) / RFU MYO3A (11730013_a_at) / Fold change /veh MYO3A (11730013_a_at) / RFU EBF3 (11725865_a_at) / Fold change /veh EBF3 (11725865_a_at) / RFU CAMK2N1 (11719241_x_at) / Fold change /veh CAMK2N1 (11719241_x_at) / RFU C5orf56 (11738088_a_at) / Fold change /veh C5orf56 (11738088_a_at) / RFU OLFML3 (11715873_a_at) / Fold change /veh OLFML3 (11715873_a_at) / RFU LOC100653217 /// NTM (11731650_a_at) / Fold change /veh LOC100653217 /// NTM (11731650_a_at) / RFU MAPK11 (11762145_a_at) / Fold change /veh MAPK11 (11762145_a_at) / RFU FIZ1 (11724087_x_at) / Fold change /veh FIZ1 (11724087_x_at) / RFU OASL (11726364_x_at) / Fold change /veh OASL (11726364_x_at) / RFU SOX15 (11748057_x_at) / Fold change /veh SOX15 (11748057_x_at) / RFU CD79A (11719716_a_at) / Fold change /veh CD79A (11719716_a_at) / RFU HIST1H1D (11736915_at) / Fold change /veh HIST1H1D (11736915_at) / RFU CASKIN2 (11723855_a_at) / Fold change /veh CASKIN2 (11723855_a_at) / RFU LOC730098 (11760151_x_at) / Fold change /veh LOC730098 (11760151_x_at) / RFU OR4N2 (11742367_at) / Fold change /veh OR4N2 (11742367_at) / RFU PRRT2 (11749266_a_at) / Fold change /veh PRRT2 (11749266_a_at) / RFU SNX32 (11753110_a_at) / Fold change /veh SNX32 (11753110_a_at) / RFU CDHR5 (11726645_a_at) / Fold change /veh CDHR5 (11726645_a_at) / RFU RCAN1 (11760418_a_at) / Fold change /veh RCAN1 (11760418_a_at) / RFU FAM167A (11723789_a_at) / Fold change /veh FAM167A (11723789_a_at) / RFU FAM26E (11764081_at) / Fold change /veh FAM26E (11764081_at) / RFU ISYNA1 (11749810_s_at) / Fold change /veh ISYNA1 (11749810_s_at) / RFU ACY1 (11761880_at) / Fold change /veh ACY1 (11761880_at) / RFU 11764098_at / Fold change /veh 11764098_at / RFU SAMD14 (11745864_x_at) / Fold change /veh SAMD14 (11745864_x_at) / RFU NPB (11741838_a_at) / Fold change /veh NPB (11741838_a_at) / RFU TMPRSS6 (11731388_a_at) / Fold change /veh TMPRSS6 (11731388_a_at) / RFU KRTAP10-2 (11738614_at) / Fold change /veh KRTAP10-2 (11738614_at) / RFU ARHGAP8 /// PRR5-ARHGAP8 (11727945_x_at) / Fold change /veh ARHGAP8 /// PRR5-ARHGAP8 (11727945_x_at) / RFU KRTAP5-7 /// NADSYN1 (11734609_at) / Fold change /veh KRTAP5-7 /// NADSYN1 (11734609_at) / RFU RASL12 (11751679_a_at) / Fold change /veh RASL12 (11751679_a_at) / RFU CDKN2B (11736163_a_at) / Fold change /veh CDKN2B (11736163_a_at) / RFU PRF1 (11729649_at) / Fold change /veh PRF1 (11729649_at) / RFU, ZNF638 /// ZNF638-IT1 / Fold change vs veh, ZNF638 /// ZNF638-IT1 / RFU, PANK3 / Fold change vs veh, PANK3 / RFU, SH3YL1 / Fold change vs veh, SH3YL1 / RFU, ZEB2 / Fold change vs veh, ZEB2 / RFU, NRIP1 / Fold change vs veh, NRIP1 / RFU, PTTG1IP / Fold change vs veh, PTTG1IP / RFU, CAPN2 / Fold change vs veh, CAPN2 / RFU, MED14 / Fold change vs veh, MED14 / RFU, SNORA58 / Fold change vs veh, SNORA58 / RFU, C1orf63 / Fold change vs veh, C1orf63 / RFU, LRRFIP1 / Fold change vs veh, LRRFIP1 / RFU, NDUFAF7 / Fold change vs veh, NDUFAF7 / RFU, SLC12A2 / Fold change vs veh, SLC12A2 / RFU, IBTK / Fold change vs veh, IBTK / RFU, ESF1 / Fold change vs veh, ESF1 / Fold change vs veh, TMEM50B / RFU, TAOK1 / Fold change vs veh, TAOK1 / RFU, ACBD3 / Fold change vs veh, ACBD3 / RFU, TMA16 / Fold change vs veh, TMA16 / RFU, RWDD3 / Fold change vs veh, RWDD3 / RFU, BCAT1 / Fold change vs veh, BCAT1 / RFU, EDEM3 / Fold change vs veh, EDEM3 / RFU, TMEM33 / Fold change vs veh, TMEM33 / RFU, WDR75 / Fold change vs veh, WDR75 / RFU, AHCTF1 / Fold change vs veh, AHCTF1 / RFU, TFRC / Fold change vs veh, TFRC / RFU, ZDHHC17 / Fold change vs veh, ZDHHC17 / RFU, NOM1 / Fold change vs veh, NOM1 / RFU, ARL8B / Fold change vs veh, ARL8B / RFU, ZBTB11 / Fold change vs veh, ZBTB11 / RFU, TAMM41 / Fold change vs veh, TAMM41 / RFU, KIAA1704 /// LOC100996395 / Fold change vs veh, KIAA1704 /// LOC100996395 / RFU, ING1 / Fold change vs veh, ING1 / RFU, TRMT61B / Fold change vs veh, TRMT61B / RFU, FUBP3 / Fold change vs veh, FUBP3 / RFU, TP53 / Fold change vs veh, TP53 / RFU, TNKS2 / Fold change vs veh, TNKS2 / RFU, ZFP14 / Fold change vs veh, ZFP14 / RFU, ACTR2 / Fold change vs veh, ACTR2 / RFU, PPP3R1 / Fold change vs veh, PPP3R1 / RFU, PIK3R1 / Fold change vs veh, PIK3R1 / RFU, HNRNPA1 / Fold change vs veh, HNRNPA1 / RFU, RNF170 / Fold change vs veh, RNF170 / RFU, ZNF28 / Fold change vs veh, ZNF28 / RFU, RNGTT / Fold change vs veh, RNGTT / RFU, OGT / Fold change vs veh, OGT / RFU, BRD1 / Fold change vs veh, BRD1 / RFU, MARS / Fold change vs veh, MARS / RFU, ZNF655 / Fold change vs veh, ZNF655 / RFU, FAHD1 / Fold change vs veh, FAHD1 / RFU, BDP1 / Fold change vs veh, BDP1 / RFU, LRRCC1 / Fold change vs veh, LRRCC1 / RFU, ARID1A / Fold change vs veh, ARID1A / RFU, ZNF146 / Fold change vs veh, ZNF146 / RFU, ZNF330 / Fold change vs veh, ZNF330 / RFU, GPN3 / Fold change vs veh, GPN3 / RFU, C9orf123 / Fold change vs veh, C9orf123 / RFU, N4BP2L2 / Fold change vs veh, N4BP2L2 / RFU, ARFIP1 / Fold change vs veh, ARFIP1 / RFU, FAM179B / Fold change vs veh, FAM179B / RFU, BCL10 / Fold change vs veh, BCL10 / RFU, UHRF1BP1L / Fold change vs veh, UHRF1BP1L / RFU, BET1 / Fold change vs veh, BET1 / RFU, CNOT2 / Fold change vs veh, CNOT2 / RFU, ZNF268 / Fold change vs veh, ZNF268 / Fold change vs veh, ZNF507 / RFU, DGCR2 / Fold change vs veh, DGCR2 / RFU, WDSUB1 / Fold change vs veh, WDSUB1 / Fold change vs veh, HSP90B1 /// MIR3652 / RFU, ADSS / Fold change vs veh, ADSS / RFU, GK / Fold change vs veh, GK / RFU, ZNF148 / Fold change vs veh, ZNF148 / RFU, TAF9 / Fold change vs veh, TAF9 / RFU, SLC1A5 / Fold change vs veh, SLC1A5 / RFU, SLMO2 / Fold change vs veh, SLMO2 / RFU, ABCC4 / Fold change vs veh, ABCC4 / RFU, LOC101060439 /// RAP1B / Fold change vs veh, LOC101060439 /// RAP1B / RFU, RFX7 / Fold change vs veh, RFX7 / RFU, GTPBP10 / Fold change vs veh, GTPBP10 / RFU, CNEP1R1 / Fold change vs veh, CNEP1R1 / RFU, BIVM-ERCC5 /// ERCC5 / Fold change vs veh, BIVM-ERCC5 /// ERCC5 / RFU, ILF3 / Fold change vs veh, ILF3 / RFU 11762660_at / Fold change /veh 11762660_at / RFU VCAN (11757783_s_at) / Fold change /veh VCAN (11757783_s_at) / RFU DDX43 (11728927_at) / Fold change /veh DDX43 (11728927_at) / RFU KRT8 (11758188_x_at) / Fold change /veh KRT8 (11758188_x_at) / RFU NKD1 (11759106_at) / Fold change /veh NKD1 (11759106_at) / RFU SRD5A1 (11742802_a_at) / Fold change /veh SRD5A1 (11742802_a_at) / RFU TPSAB1 /// TPSB2 (11721975_s_at) / Fold change /veh TPSAB1 /// TPSB2 (11721975_s_at) / RFU GSTM3 (11746129_a_at) / Fold change /veh GSTM3 (11746129_a_at) / RFU IL23R (11737362_x_at) / Fold change /veh IL23R (11737362_x_at) / RFU TMEM51 (11727254_a_at) / Fold change /veh TMEM51 (11727254_a_at) / RFU PIWIL2 (11732686_x_at) / Fold change /veh PIWIL2 (11732686_x_at) / RFU ORM1 (11744905_x_at) / Fold change /veh ORM1 (11744905_x_at) / RFU CCDC152 (11743942_at) / Fold change /veh CCDC152 (11743942_at) / RFU ECM1 (11717891_a_at) / Fold change /veh ECM1 (11717891_a_at) / RFU IL23R (11748794_a_at) / Fold change /veh IL23R (11748794_a_at) / RFU TNFAIP8L3 (11732012_x_at) / Fold change /veh TNFAIP8L3 (11732012_x_at) / RFU MBOAT4 (11741988_at) / Fold change /veh MBOAT4 (11741988_at) / RFU 11764193_at / Fold change /veh 11764193_at / RFU TMEM53 (11763286_at) / Fold change /veh TMEM53 (11763286_at) / RFU MAGEB2 (11727129_at) / Fold change /veh MAGEB2 (11727129_at) / RFU TMEM200A (11744735_a_at) / Fold change /veh TMEM200A (11744735_a_at) / RFU CCDC152 (11751479_a_at) / Fold change /veh CCDC152 (11751479_a_at) / RFU FAM211A (11726209_a_at) / Fold change /veh FAM211A (11726209_a_at) / RFU RGS16 (11746705_a_at) / Fold change /veh RGS16 (11746705_a_at) / RFU VCAN (11755009_s_at) / Fold change /veh VCAN (11755009_s_at) / RFU RHOB (11743442_s_at) / Fold change /veh RHOB (11743442_s_at) / RFU RGS16 (11720943_a_at) / Fold change /veh RGS16 (11720943_a_at) / RFU RGS16 (11720944_at) / Fold change /veh RGS16 (11720944_at) / RFU, VPS4B / Fold change vs veh, VPS4B / RFU, CREB1 / Fold change vs veh, CREB1 / RFU, DNAJC13 / Fold change vs veh, DNAJC13 / RFU, GNAQ / Fold change vs veh, GNAQ / RFU, CDK5R1 / Fold change vs veh, CDK5R1 / RFU, ZRANB3 / Fold change vs veh, ZRANB3 / RFU, CUL4A / Fold change vs veh, CUL4A / RFU, CCNY / Fold change vs veh, CCNY / RFU, UFL1 / Fold change vs veh, UFL1 / RFU, COG3 / Fold change vs veh, COG3 / RFU, DIAPH2 / Fold change vs veh, DIAPH2 / RFU, SKA2 / Fold change vs veh, SKA2 / RFU, AFF3 / Fold change vs veh, AFF3 / RFU, LMF1 / Fold change vs veh, LMF1 / RFU, IPO11 / Fold change vs veh, IPO11 / RFU, DFFB / Fold change vs veh, DFFB / RFU, FOXP1 / Fold change vs veh, FOXP1 / RFU, CARD8 / Fold change vs veh, CARD8 / RFU, STRN3 / Fold change vs veh, STRN3 / RFU, ADK / Fold change vs veh, ADK / RFU, RASSF2 / Fold change vs veh, RASSF2 / RFU, WIPF1 / Fold change vs veh, WIPF1 / RFU, LARP1B / Fold change vs veh, LARP1B / RFU, RASA1 / Fold change vs veh, RASA1 / RFU, RB1 / Fold change vs veh, RB1 / RFU, PPFIA1 / Fold change vs veh, PPFIA1 / RFU, MAT2A / Fold change vs veh, MAT2A / RFU, CCT5 / Fold change vs veh, CCT5 / RFU, WDR92 / Fold change vs veh, WDR92 / RFU, CUX1 / Fold change vs veh, CUX1 / RFU, TTC7A / Fold change vs veh, TTC7A / RFU, TMEM135 / Fold change vs veh, TMEM135 / RFU, DEPTOR / Fold change vs veh, DEPTOR / RFU, CPM / Fold change vs veh, CPM / RFU, DNAJB6 / Fold change vs veh, DNAJB6 / RFU, CACNA2D3 / Fold change vs veh, CACNA2D3 / RFU, DTX4 / Fold change vs veh, DTX4 / RFU, TFCP2 / Fold change vs veh, TFCP2 / RFU, GMCL1 /// GMCL1P1 / Fold change vs veh, GMCL1 /// GMCL1P1 / RFU, AEBP2 / Fold change vs veh, AEBP2 / RFU, SNHG1 /// SNORD22 /// SNORD25 /// SNORD26 /// SNORD27 /// SNORD28 /// SNORD29 /// SNORD31 / Fold change vs veh, SNHG1 /// SNORD22 /// SNORD25 /// SNORD26 /// SNORD27 /// SNORD28 /// SNORD29 /// SNORD31 / Fold change (Aza/veh), C12orf56 (ProbeSet 11735607_a_at) / Fold change (ACY-1035/veh), C12orf56 (ProbeSet 11735607_a_at) / Fold change (Aza/veh), FGFR1OP (ProbeSet 11751329_s_at) / Fold change (ACY-1035/veh), FGFR1OP (ProbeSet 11751329_s_at) / Fold change (Aza/veh), VPS36 (ProbeSet 11739960_a_at) / Fold change (ACY-1035/veh), VPS36 (ProbeSet 11739960_a_at) / RFU SYPL1 (11715823_x_at) / Fold change /veh SYPL1 (11715823_x_at) / RFU IGFBP7 (11715501_s_at) / Fold change /veh IGFBP7 (11715501_s_at) / RFU REEP3 (11722064_at) / Fold change /veh REEP3 (11722064_at) / RFU IGLL1 (11728026_x_at) / Fold change /veh IGLL1 (11728026_x_at): dose or concentration left out as unconfirmed
# Settings: ProbeSet 11721559_s_at; LIST B
smiles,measurement,value
Nc1ncn([C@@H]2O[C@H](CO)[C@@H](O)[C@H]2O)c(=O)n1 [azacitidine],"Fold change vs veh, ZNF638 /// ZNF638-IT1",0.91
